The compounds below were run against BTK (Homo sapiens (Human), UniProt Q06187) (assay: Btk kinase assay (HTRF)). Conditions: [ATP]=80 μM, BTK=3.4 nM; read-out: BTK Inhibition.
Format: biochemical
In short: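 BTK (3.4 nM) incubated 1 h with inhibitor, 80 μM ATP and 1 μM peptide substrate in 50 mM HEPES pH 7.0 with BSA and orthovanadate. Reaction stopped with EDTA plus Eu-antibody/XL665; HTRF 665/615 ratio read after 1 h, IC50 calculated relative to no-inhibitor and no-enzyme controls.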

Chain of BTK (Q06187 whole entry, species assumed): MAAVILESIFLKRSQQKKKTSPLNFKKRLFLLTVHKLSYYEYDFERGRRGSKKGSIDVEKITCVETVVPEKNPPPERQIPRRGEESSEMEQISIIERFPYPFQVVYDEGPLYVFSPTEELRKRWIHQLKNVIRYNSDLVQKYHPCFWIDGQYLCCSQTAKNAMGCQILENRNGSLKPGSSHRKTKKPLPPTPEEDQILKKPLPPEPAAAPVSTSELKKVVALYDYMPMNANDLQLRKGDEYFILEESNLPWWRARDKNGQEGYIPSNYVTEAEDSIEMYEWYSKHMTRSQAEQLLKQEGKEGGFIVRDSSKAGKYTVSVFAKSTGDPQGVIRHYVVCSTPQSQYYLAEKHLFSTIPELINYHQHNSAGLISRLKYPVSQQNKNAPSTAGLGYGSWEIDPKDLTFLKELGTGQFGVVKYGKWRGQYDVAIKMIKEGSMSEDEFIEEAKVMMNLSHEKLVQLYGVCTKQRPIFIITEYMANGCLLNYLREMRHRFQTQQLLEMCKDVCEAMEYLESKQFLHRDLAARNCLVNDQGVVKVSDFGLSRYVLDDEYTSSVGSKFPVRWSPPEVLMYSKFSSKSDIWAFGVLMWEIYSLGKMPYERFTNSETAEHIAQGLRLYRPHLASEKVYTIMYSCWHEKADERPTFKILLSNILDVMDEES

With `C=CC(=O)Nc1cccc(-n2c(=O)n(-c3ccc(-c4ccccc4)cc3)c3cnccc32)c1` [Example 271, N-(3-(3-([1,1′-biphenyl]-4-yl)-2-oxo-2,3-dihydro-1H-imidazo[4,5-c]pyridin-1-yl)phenyl)acrylamide] as the compound, how does the IC50 read?
Its IC50 is 0.01 to 0.1 µM.

`C=CC(=O)N1CC[C@@H](n2c(=O)n(-c3ccc(Oc4cccc(Cl)c4Cl)cc3)c3cnccc32)C1` [Example 99, (R)-1-(1-acryloylpyrrolidin-3-yl)-3-(4-(2,3-dichlorophenoxy)phenyl)-1,3-dihydro-2H-imidazo[4,5-c]pyridin-2-one] was tested. Which IC50 did it give?
Its IC50 is 0.01 to 0.1 µM.

Which IC50 does the source give for `C=CC(=O)Nc1cccc(-n2c(=O)n(-c3ccc(NC(=O)c4cccc(Cl)c4)cc3)c3cnccc32)c1` [Example 259, N-(4-(1-(3-acrylamidophenyl)-2-oxo-1H-imidazo[4,5-c]pyridin-3(2H)-yl)phenyl)-3-chlorobenzamide] here?
Its IC50 is 0.1 to 1 µM.

For `C=CC(=O)Nc1cccc(-n2c(=O)n(-c3cccc(Oc4cccc(C)c4)c3)c3cnccc32)c1` [Example 152, N-(3-(2-oxo-3-(3-(m-tolyloxy)phenyl)-2,3-dihydro-1H-imidazo[4,5-c]pyridin-1-yl)phenyl)acrylamide], which IC50 is on record?
Its IC50 is 0.01 to 0.1 µM.

How did the IC50 turn out when `C=CC(=O)N1CC[C@H](n2c(=O)n(-c3ccc(Oc4ccccc4)cc3)c3c(/C(N)=N/O)nccc32)C1` [Example 179, (S,Z)-1-(1-acryloylpyrrolidin-3-yl)-N′-hydroxy-2-oxo-3-(4-phenoxyphenyl)-2,3-dihydro-1H-imidazo[4,5-c] pyridine-4-carboximidamide] was run?
The IC50 was ≥ 10 µM.

For `C=CC(=O)Nc1cccc(-n2c(=O)n(-c3ccc(Oc4cccc(Cl)c4)c(C)c3)c3cnccc32)c1` [Example 154, N-(3-(3-(4-(3-chlorophenoxy)-3-methylphenyl)-2-oxo-2,3-dihydro-1H-imidazo[4,5-c]pyridin-1-yl)phenyl)acrylamide], which IC50 is on record?
The IC50 was 1 to 10 µM.

`C=CC(=O)Nc1cccc(-n2c(=O)n(-c3cccc(Oc4ccccc4)c3)c3cnccc32)c1` [Example 7, N-(3-(2-oxo-3-(3-phenoxyphenyl)-2,3-dihydro-1H-imidazo[4,5-c]pyridin-1-yl)phenyl)acrylamide] was tested. Which IC50 did it give?
Its IC50 is 0.01 to 0.1 µM.

`C=CC(=O)N1CC[C@@H](n2c(=O)n(-c3ccc(OCc4ccccc4C(F)(F)F)cc3)c3cnccc32)C1` [Example 210, (R)-1-(1-acryloylpyrrolidin-3-yl)-3-(4-((2-(trifluoromethyl)benzyl)oxy)phenyl)-1H-imidazo[4,5-c]pyridine-2(3H)-one] was tested. Which IC50 did it give?
Its IC50 is 0.01 to 0.1 µM.

`CC#CC(=O)N1CC[C@@H](n2c(=O)n(-c3ccc(Oc4ccccc4)cc3)c3cnccc32)C1` [Example 34, (R)-1-(1-(but-2-ynoyl)pyrrolidin-3-yl)-3-(4-phenoxyphenyl)-1H-imidazo [4,5-c]pyridin-2(3H)-one] was tested. Which IC50 did it give?
The IC50 was ≥ 10 µM.

Which IC50 does the source give for `C=CC(=O)Nc1cccc(-n2c(=O)n(-c3ccc(OCc4ccc(Cl)cc4F)cc3)c3cnccc32)c1` [Example 245, N-(3-(3-(4-((4-chloro-2-fluorobenzyl)oxy)phenyl)-2-oxo-2,3-dihydro-1H-imidazo[4,5-c]pyridin-1-yl)phenyl)acrylamide] here?
The IC50 was 0.1 to 1 µM.

Which IC50 does the source give for `C=CC(=O)Nc1cccc(-n2c(=O)n(-c3ccc(Oc4cccc(C)c4C)c(Cl)c3)c3cnccc32)c1` [Example 148, N-(3-(3-(3-chloro-4-(2,3-dimethylphenoxy)phenyl)-2-oxo-2,3-dihydro-1H-imidazo[4,5-c]pyridin-1-yl)phenyl)acrylamide] here?
Its IC50 is 0.01 to 0.1 µM.

With `C=CC(=O)Nc1cccc(-n2c(=O)n(-c3ccc(Oc4cccc(C)c4C)cc3)c3cnccc32)c1` [Example 147, N-(3-(3-(4-(2,3-dimethylphenoxy)phenyl)-2-oxo-2,3-dihydro-1H-imidazo[4,5-c]pyridin-1-yl)phenyl)acrylamide] as the compound, how does the IC50 read?
Its IC50 is 0.01 to 0.1 µM.

How did the IC50 turn out when `C=CC(=O)Nc1cccc(-n2c(=O)n(-c3ccc(C(=O)N4CCOCC4)cc3)c3cnccc32)c1` [Example 253, N-(3-(3-(4-(morpholine-4-carbonyl)phenyl)-2-oxo-2,3-dihydro-1H-imidazo[4,5-c]pyridin-1-yl)phenyl)acrylamide] was run?
Its IC50 is 1 to 10 µM.

With `C=CC(=O)N1CC[C@@H](n2c(=O)n(-c3ccc(OCc4ccccc4)c(F)c3)c3cnccc32)C1` [Example 237, (R)-1-(1-acryloylpyrrolidin-3-yl)-3-(4-(benzyloxy)-3-fluorophenyl)-1,3-dihydro-2H-imidazo[4,5-c]pyridin-2-one] as the compound, how does the IC50 read?
Its IC50 is 0.01 to 0.1 µM.

With `O=C(/C=C/c1ccccc1)N1CC[C@@H](n2c(=O)n(-c3ccc(Oc4ccccc4)cc3)c3cnccc32)C1` [Example 29, (R,E)-1-(1-cinnamoylpyrrolidin-3-yl)-3-(4-phenoxyphenyl)-1H-imidazo[4,5-c]pyridin-2(3H)-one] as the compound, how does the IC50 read?
Its IC50 is ≥ 10 µM.

`C=C(C)C(=O)N1CC[C@@H](n2c(=O)n(-c3cccc(Oc4ccccc4)c3)c3cnccc32)C1` [Example 156, (R)-1-(1-methacryloylpyrrolidin-3-yl)-3-(3-phenoxyphenyl)-1H-imidazo[4,5-c]pyridin-2(3H)-one] was tested. Which IC50 did it give?
The IC50 was 1 to 10 µM.

Which IC50 does the source give for `C=CC(=O)N1CC[C@@H](n2c(=O)n(-c3cccc(Oc4cccc(Cl)c4F)c3)c3cnccc32)C1` [Example 97, (R)-1-(1-acryloylpyrrolidin-3-yl)-3-(3-(3-chloro-2-fluorophenoxy)phenyl)-1,3-dihydro-2H-imidazo[4,5-c]pyridin-2-one] here?
The IC50 was 0.01 to 0.1 µM.

How did the IC50 turn out when `C=CC(=O)N1CCC[C@@H](n2c(=O)n(-c3ccc(Oc4cccc(Cl)c4Cl)cc3)c3cnccc32)C1` [Example 100, (R)-1-(1-acryloylpiperidin-3-yl)-3-(4-(2,3-dichlorophenoxy)phenyl)-1,3-dihydro-2H-imidazo[4,5-c]pyridin-2-one] was run?
Its IC50 is 0.01 to 0.1 µM.

For `C=CC(=O)N1CC[C@@H](n2c(=O)n(-c3ccc(Oc4ccccc4)cc3)c3c(OC)nccc32)C1` [Example 182, (R)-1-(1-acryloylpyrrolidin-3-yl)-4-methoxy-3-(4-phenoxyphenyl)-1H-imidazo[4,5-c]pyridin-2(3H)-one], which IC50 is on record?
The IC50 was ≥ 10 µM.

How did the IC50 turn out when `C=CC(=O)N1CCC[C@@H](n2c(=O)n(-c3ccc(Oc4cccc(F)c4)cc3)c3cnccc32)C1` [Example 117, (R)-1-(1-acryloylpiperidin-3-yl)-3-(4-(3-fluorophenoxy)phenyl)-1H-imidazo [4,5-c]pyridin-2(3H)-one] was run?
Its IC50 is 0.01 to 0.1 µM.

`C=CC(=O)Nc1cccc(-n2c(=O)n(-c3ccc(Oc4ccc(F)c(F)c4)cc3)c3cnccc32)c1` [Example 126, N-(3-(3-(4-(3,4-difluorophenoxy)phenyl)-2-oxo-2,3-dihydro-1H-imidazo[4,5-c]pyridin-1-yl)phenyl)acrylamide] was tested. Which IC50 did it give?
The IC50 was 0.1 to 1 µM.

How did the IC50 turn out when `C=CC(=O)N1CCC[C@@H]1Cn1c(=O)n(-c2ccc(Oc3cccc(OC)c3F)cc2)c2cncc(C)c21` [Example 170, (R)-1-((1-acryloylpyrrolidin-2-yl)methyl)-3-(4-(2-fluoro-3-methoxyphenoxy)phenyl)-7-methyl-1H-imidazo[4,5-c]pyridin-2(3H)-one] was run?
Its IC50 is 0.1 to 1 µM.

For `C=CC(=O)Nc1cccc(-n2c(=O)n(-c3ccc(Oc4ccccc4)cc3)c3ccncc32)c1` [Example 121, N-(3-(2-oxo-1-(4-phenoxyphenyl)-1H-imidazo[4,5-c]pyridin-3(2H)-yl)phenyl)acrylamide], which IC50 is on record?
The IC50 was 0.1 to 1 µM.

With `C=CC(=O)N1CCC[C@@H](n2c(=O)n(-c3ccc(Oc4cccc(OC)c4C)cc3)c3cnccc32)C1` [Example 142, (R)-1-(1-acryloylpiperidin-3-yl)-3-(4-(3-methoxy-2-methylphenoxy)phenyl)-1H-imidazo[4,5-c]pyridin-2(3H)-one] as the compound, how does the IC50 read?
Its IC50 is 0.01 to 0.1 µM.
